Experiments:
[1] = Erythrosine B and hydroquinone release from dual compartment glycerol-silicone elastomer immersed in deionized water (UV-vis); format: physicochemical; conditions: for release kinetics (order): dual compartment elastomer, 80 phr total glycerol concentration
Method: For the present experiment two solutions were prepared—glycerol-erythrosine B and glycerol-hydroquinone solutions. Glycerol-erythrosine B solution contained 4 g of glycerol and 0.04 g of erythrosine B. Glycerol-hydroquinone solution contained 4 g of glycerol and 0.2 g of hydroquinone. Single emulsions were prepared as detailed above and were subsequently used to prepare two distinct glycerol-in-silicone emulsions. The glycerol-erythrosine B and glycerol-hydroquinone solutions were each added to 5 g of a silicone prepolymer in respective, separate containers. In this case, Sylgard 184 silicone kit from Dow Corning was applied. The respective mixtures were subsequently speed-mixed for 2 to 5 minutes using a dual asymmetric centrifuge DAC SpeedMixer. To prepare the dual compartment silicone elastomers, the two glycerol-in-silicone emulsions were combined. Desired amounts of each of the emulsions were placed into a speed-mixing cup. The composition was subsequently speed-mixed at low mixing rates (typically between from 500 to 1000 rpm) for around 1 minute in order to uniformly distribute both types of droplets within the silicone matrix. Stable emulsions can be mixed with any given speed. […] After combining and mixing both single emulsions a dual compartment emulsion was obtained. The emulsion contained 10 g of silicone, 4.04 g of glycerol droplets containing erythrosine B and 4.2 g of glycerol droplets containing hydroquinone. The total mass of the emulsion was 18.24 g. In a final step, the elastomer emulsions were cured at 80° C. for 1 hour. Long exposure to high temperatures results in glycerol evaporation therefore prolonged high temperature curing should be avoided. […] Release profiles of erythrosine and hydroquinone from the glycerol-silicone elastomers were determined by immersing composites in deionized water. The progress of release of erythrosine B and hydroquinone was monitored by measuring changes in concentration of both compounds in the aqueous environment. […] Each release profile curve represents an average of three separate experiments. Films with thickness of 0.3 mm were investigated. Such thin films tend to self-adhere therefore they were mounted onto custom-made frames (FIG. 4) to maintain a constant exposed surface area and placed in beakers equipped with magnetic stirring.

[2] = Hydroquinone release from single compartment glycerol-silicone elastomers immersed in deionized water (UV-vis); format: physicochemical; conditions: hydroquinone alone (single glycerol phase), 80 phr total glycerol concentration
Method: The example provided leads to a 1.42 g batch of material that may readily be scaled up or down. Using the described method batches from between 1 g and 80 g were prepared. Hydroquinone (HQ, 0.02 g, 5 wt. %) was dissolved in glycerol (0.4 g) at 50° C. using magnetic stirring until a clear solution was obtained (typically around 1-2 hours). […] Sample nomenclature uses the pattern GX HQY S184 Z, where G and X correspond to glycerol and concentration of glycerol in phr (weight parts per hundred weight parts of silicone elastomer), HQ and Y correspond to hydroquinone and concentration of hydroquinone dissolved in glycerol (expressed as weight percentage of HQ in glycerol) and S184 corresponds to applied silicone composition, respectively. […]
Release profiles of HQ from the glycerol-silicone elastomers were determined by immersing composites containing various amounts of glycerol with 5 wt % of HQ in deionized water. The progress of hydroquinone release was monitored by measuring changes in concentration of hydroquinone in the aqueous environment. A UV-vis spectrophotometer POLARstar Omega microplate reader by BMG LabTech was used for the tests, and outcomes were compared against a calibration curve for hydroquinone/water solutions. […]

amount released ([1]; after 28 hours, 0.3 mm thick dual compartment elastomer, 80 phr glycerol in total) [%] | time after which the entire incorporated amount was released ([1]; 0.3 mm thick dual compartment elastomer, 40 phr glycerol with erythrosine B + 40 phr glycerol with hydroquinone) | share of the total amount released with zero-order kinetics ([1]; 0.3 mm thick dual compartment elastomer, 80 phr glycerol in total) [%] | release kinetics (order) [2] | Compound | release kinetics (order) [1]
15 | – | – | – | erythrosine B | zero-order kinetics throughout the whole experiment
– | around 6 hours | ~80 | near-zero order release kinetics | Oc1ccc(O)cc1 [hydroquinone] | zero-order release kinetics

Source: patent publication US11739194B2, “Glycerol-silicone elastomers as active matrices with controllable release profiles” (Danmarks Tekniske Universitet, priority 2017, dated 2023)
